As usually defined, the MIC90 is an inhibitory concentration at the 90% level, which refers to growth in some studies and to a panel of isolates in others.

Converted amounts (≈) assume the structure as drawn. “And” between values parts separate entries of the source, which are not always exact repeats. Equal entries are not always repeated. “Also recorded” adds a separate entry of the source. Structures can show the parent of a compound that is named as a salt. Where two headings read alike, the source gives them in different places.

In data set [1] the target is T1, IdeR (Mycobacterium tuberculosis, UniProt P9WMH1). Briefly: biochemical. The following applies: EMSA.
The target of data set [2] is T1, IdeR. Put plainly: EMSA competition experiments with increasing labeled DNA. It is filed as biochemical. Conditions: DNA 0.8 pmoles to 12.8 pmoles.
Data set [3] concerns M. tuberculosis. Briefly: Resazurin microtiter assay (REMA) whole cell MIC90 in broth culture. It is filed as cell-based, Mycobacterium tuberculosis. The following applies: MB7H9 medium, Mean ± S.E., three experiments; for MIC90: Mycobacterium tuberculosis, read-out: MIC90 of compounds against M. tuberculosis. For orientation: Alamar Blue is a resazurin reagent that responds to reducing activity.

Data set [4] concerns the target T1, IdeR. Put plainly: EMSA with Fe2+ instead of Ni2+: effect of iron on inhibition. Format: biochemical. The following applies: 100 µM Fe2+, 100 µg/ml compound. In general terms: A gel shift assay detects complexes by their altered migration in electrophoresis.
Data set [5] has as its system THP-1 (human monocytic macrophage cell line). Briefly: Cytotoxicity by REMA in THP-1. It is filed as cell-based. Conditions: for IC50: Homo sapiens, THP-1, 1-200 µg/ml, read-out: Inhibition in THP1 (IC50 in µg/ml). As to the method: (§1) The cytotoxicity of the compounds was determined by employing REMA using various mammalian cell lines such as THP-1 (human monocytic macrophage cell line), HEK (Human Embryonic Kidney cell line), MDCK (Madine darby canine kidney cell line) and HepG2 (Human hepatocellular carcinoma cell line). 1 × 10^4 cells/well were employed in a sterilized 96-well plate containing serial dilutions of compounds ranging from 1 µg/ml to 200 µg/ml concentration, in their respective media (RPMI for THP-1, DMEM for HEK and HepG2 and MEM for MDCK) with 10% fetal bovine serum and Antibiotic-Antimycotic mix (Invitrogen Corporation, Carlsbad, California, USA). IC50 is defined as the concentration of the compound that causes 50% reduction in the fluorescence intensity indicating 50% viable cells. IC50 values were determined from the results of at least two independent tests and Mean ± S.E.M was calculated from the inhibition curve using GraphPad Prism 5.

The test system of data set [6] is HEK (Human Embryonic Kidney cell line). Put plainly: Cytotoxicity by REMA in HEK. It is filed as cell-based. Conditions: Homo sapiens, 1-200 µg/ml, read-out: Inhibition in HEK (IC50 in µg/ml). As to the method:
as §1

Data set [7] relates to MDCK (Madine darby canine kidney cell line). Put plainly: Cytotoxicity by REMA in MDCK. Format: cell-based. Conditions: Canis lupus familiaris, MDCK, 1-200 µg/ml, read-out: Inhibition in MDCK (IC50 in µg/ml). As to the method: as §1
The test system of data set [8] is HepG2 (Human hepatocellular carcinoma cell line). Briefly: Cytotoxicity by REMA in HepG2. The following applies: Homo sapiens, HepG2, 1-200 µg/ml, read-out: Inhibition in HepG2 (IC50 in µg/ml). Format: cell-based. As to the method:
as §1

Data set [9] relates to intracellular M. tuberculosis H37Rv. Briefly: Inhibition of intracellular M. tuberculosis in PMA activated THP-1 cells, spotting on agar plates. It is filed as cell-based, Mycobacterium tuberculosis.
Data set [10] concerns the target T2, IdeR (Mycobacterium tuberculosis, UniProt P9WMH1 1-230).
T2 sequence: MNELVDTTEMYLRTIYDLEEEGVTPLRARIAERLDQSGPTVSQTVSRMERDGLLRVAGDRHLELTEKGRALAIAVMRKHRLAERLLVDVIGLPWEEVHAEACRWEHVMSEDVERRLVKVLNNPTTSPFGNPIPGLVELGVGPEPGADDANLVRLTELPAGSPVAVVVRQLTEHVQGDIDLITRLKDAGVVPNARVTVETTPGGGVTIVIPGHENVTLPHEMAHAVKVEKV
Briefly: EMSA. The following applies: protein: recombinant; tags: vector pET28c NdeI/HindIII (His-tag, Ni-NTA purified); C-terminal streptactin tag from reverse primer; chain copies: 4; label: Cy5 at 5' end of both strands; blunt (only sense strand printed).

[11] abbreviates: 0.35 µg IdeR, 0.8 picomoles labeled DNA, 200 µM NiSO4, inhibitor 0.4-100 µg/ml, read-out: IC50 (µg/ml) (converted).
The mark [12] stands for this setting: same values given in µM, read-out: IC50.
Setting [13] is: at 500 μg/ml (highest concentration tested), infected THP-1, 5 days.
[14] abbreviates: at concentrations lower than 500 μg/ml (100 to 400 μg/ml), infected THP-1.

In the case of `Nc1ccc(-c2nc3ccccc3s2)cc1S(=O)(=O)O` [Compound I-8, 2amino-5-(1,3-benzothiazol-2-yl) benzene sulfonic acid ammoniate], the IC50 was ≤ 81.6 µM and 78 µM in data set [1] (setting [11]); 74 µM in data set [1] (setting [12]). Further, in data set [2], the “mode of inhibition in competition with DNA” value (“mode of inhibition” below) is “competing with DNA”. Also, the “MIC90 of compounds against M. tuberculosis (µg/ml)” value in [3] was “no inhibition”.

Turning to `O=C(O)C1(Cc2ccc(O)c(O)c2)NCCS1` (stereo not shown) [Compound I-20, 2-(3,4-dihydroxybenzyl)-1,3-thiazolidine-2-carboxylic acid], the IC50 in [1] (setting [11]) and in data set [1] (setting [12]) was 9.56 µM in each case. Also, the “mode of inhibition” value in data set [2] is “competing with DNA”. For the same molecule, the “effect of iron on the inhibitory potential” value in [4] was “no effect”.

`Cc1nn(-c2ccccc2)c2c1N=C(C(=O)O)CC(c1ccccc1)=N2` [Compound I-33, 3-methyl-1,7-diphenyl-1,6-dihydropyrazolo[3,4-b][1,4]diazepine-5-carboxylic acid]: the IC50 in data set [1] (setting [11]) was 63 µM and 63.1 µM; in data set [1] (setting [12]) it was 63 µM; in data set [5] it was over 200 µg/mL; in [6] it was over 200 µg/mL; in [7], over 200 µg/mL; in data set [8], over 200 µg/mL. For the same molecule, the “MIC90 of compounds against M. tuberculosis” value in data set [3] is 93 µg/mL and 93.3 ± 8.16 µg/mL. Besides, the MIC90 in data set [3] was found to be 93.3 µg/mL (≈ 271 µM). Further, the “growth of intracellular M. tuberculosis on agar plates” value (“growth” below) is recorded as “negligible inhibition” in [9] (setting [13]) and “unaffected” in data set [9] (setting [14]).

For `Cc1ccc(C2=Nc3c(c(C)nn3-c3ccccc3)N=C(C(=O)O)C2)cc1` [Compound I-34, 3-methyl-7-(4-methylphenyl)-1-phenyl-1,6-dihydropyrazolo[3,4-b][1,4]diazepine-5-carboxylic acid], the IC50 in data set [1] (setting [11]) was ≤ 69.8 µM and 17 µM and 16.7 µM; in [1] (setting [12]) it was 17 µM; in [5], over 200 µg/mL; in [6], over 200 µg/mL; in [7], over 200 µg/mL; in data set [8], over 200 µg/mL. In addition, the “mode of inhibition” value in data set [2] was “competing with DNA”. The “effect of iron on the inhibitory potential” value in [4] is reported as “no effect”. In addition, in data set [3], the “MIC90 of compounds against M. tuberculosis” value is 86 µg/mL and 86.6 ± 7.8 µg/mL. Moreover, the MIC90 in [3] was found to be 86.6 µg/mL (≈ 242 µM). In addition, the figures for the “growth” value in data set [9] (setting [13]) and in [9] (setting [14]) were “negligible inhibition; also recorded: unable to limit the growth of intracellular bacteria” and “unaffected”, respectively.

`CC(NCc1c(O)ccc2ccc(=O)oc12)C(=O)O` (stereo not shown) [Compound I-39]: the IC50 in data set [1] (setting [11]) was 53.9 µM; in [1] (setting [12]) it was 54 µM. For the same molecule, the “mode of inhibition” value in data set [2] is listed as “competing with DNA”.

For `O=S(=O)(O)c1ccc(O)c(N=Nc2c(O)ccc3ccccc23)c1` [Compound I-42, Benzene sulfonic acid,4-hydroxy-3-[(2-hydroxy-1-naphthalenyl)azo]-monosodium salt], the IC50 in [1] (setting [11]) was ≤ 72.6 µM and 2.9 µM; in data set [1] (setting [12]) it was 2.72 µM. Also, in data set [2], the “mode of inhibition” value is reported as “competing with DNA”. Further, the “effect of iron on the inhibitory potential” value in [4] is “no effect”.

`Cc1ccc(S(=O)(=O)C2CC(=O)N(c3ccc(F)c(Cl)c3)C2=O)cc1` (stereo not shown) [Compound I-108, 1-(3-chloro-4-fluorophenyl)-3-[(4-methylphenyl)sulfonyl]pyrrolidine-2,5-dione]: the IC50 in data set [1] (setting [11]) was 62.9 µM and 63.6 µM; in data set [1] (setting [12]) it was 63.6 µM; in data set [5] it was 168 ± 5.6 µg/mL (≈ 439 µM); in data set [6] it was over 200 µg/mL; in data set [7], over 200 µg/mL; in data set [8], over 200 µg/mL. Further, in data set [3], the “MIC90 of compounds against M. tuberculosis” value came out at 17.5 ± 3.06 µg/mL. Besides, in [3], the MIC90 was found to be 17.5 µg/mL (≈ 45.8 µM). For the same molecule, the “Inhibition in THP1 (IC50 in µg/ml)” value in [5] (1-200 µg/ml) is “slight toxicity”. Moreover, the “growth” value in data set [9] (at 150 μg/ml and 125 μg/ml, infected THP-1, 5 days) was “only a few pin pointed colonies; also recorded: pin point colonies; also recorded: able to limit the growth of intracellular bacteria”; in data set [9] (at lower concentrations (100 to 25 μg/ml), infected THP-1, 5 days) it was “prominent growth of bacilli”.

B1: mbtA-mbtB intergenic IdeR binding region oligo (dsDNA)
DNA 1: CCCTGTTAGCACAGGCTGCCCTAATTTTAGTG
DNA 2: CACTAAAATTAGGGCAGCCTGTGCTAACAGGG
For B1, the binding result in data set [10] is given as “binds”.

These data come from article PMC5498548.
